Measured values: patent US5739130A, “Heterotricyclic derivatives, process for their preparation and pharmaceutical compositions containing them” (Fujisawa Pharmaceutical Co., Ltd., priority 1992, dated 1998)

Tests used:
[1] = system: proteinuria (serum albumin in the urine); assay: Inhibitory activity on the leakage of a proteinuria (GVH disease mice, serum albumin in urine); type: in vivo, (57BL/6×DBA/2)F1; details: 32 mg/kg orally once a day for 8 weeks, measured 8 weeks after last cell injection, P<0.01 vs control
Method: (§1) Inhibitory activity on the production of an anti-DNA-antibody and on the leakage of a proteinuria
(§2) Six weeks old female (57BL/6×DBA/2)F1 and DBA/2 mice were used. Graft-versus-host (GVH) disease was induced in (57BL/6×DBA/2)F1mice with two injections of DBA/2 spleen cells given 5 days apart. Each injection contained 5×10^7 cells. From 3 days after the second cell injection, drug was administered orally once a day for 8 weeks.
(§3) As an indication of autoimmune disease, 4 weeks after the last cell injection anti-single strand DNA antibodies were measured by enzyme-linkedimmunosorbent assay (ELISA) using the procedure reported by T. Fujitsu et al. (International J. Immunopharmacol, 8 897 (1986)). To assess the renal disease, 8 weeks after the last cell injection proteinuria were measured. The concentration of serum albumin in the urine was determined by the single radial immunodiffusion method using rabbit anti-mouse serum albumin antiserum. Ten mice were used per group. The activity of the compound was expressed as a % inhibition of anti-DNA antibody and proteinuria.

[2] = system: B16 melanoma cells; assay: Inhibitory activity on B16 melanoma metastases; type: in vivo, Mouse; details: C57BL/6 mice, day 16, P<0.01 vs control
Method: Inhibitory activity on B16 melanoma metastases
According to the experimental schedule as exemplified below, the experiment was carried out.
Mouse B16 melanoma cells (5×10^5 cells) were inoculated intravenously to 8 weeks old female (C57BL/6) mice on day 0.
The animals were sacrificed at day 16 and tumor colonies established in lung were counted in a dissection microscope.
The test compound was administered orally once a day.
Effects of test compound on tumors were assessed by the numbers of colonies compared to control. [drawing 8] 2. Test compound

[3] = system: anti-single strand DNA antibodies; assay: Inhibitory activity on the production of an anti-DNA-antibody (GVH disease mice, ELISA); type: in vivo, (57BL/6×DBA/2)F1; details: 32 mg/kg orally once a day for 8 weeks, measured 4 weeks after last cell injection, P<0.05 vs control
Method: as §1, §2, §3

## COc1cc2c3c(c1)c(O)c(C(=O)N1CCc4ccccc41)c(=O)n3CCO2 [2,3-Dihydro-7-hydroxy-9-methoxy-6-(1-indolinylcarbonyl)-5-oxo-5H-pyrido[1,2,3-de]-1,4-benzoxazine]
[1]
  Inhibition (%) proteinuria: 99%
[2]; 32 mg/kg orally once a day
  inhibition (%) of tumor colonies in lung: 36%
[2]; 100 mg/kg orally once a day
  inhibition (%) of tumor colonies in lung: 59%
[3]
  Inhibition (%) anti-DNA antibody: 86%
